Patent publication US7468178B2, “Methods for identifying compounds that modulate vigilance states” (Neurosciences Research Foundation, Inc., priority 1999, dated 2008)

What was measured:
Drosophila [1] = test system: Drosophila
Protocol: In order to monitor fly behavior, five-day old virgin female Canton-S Drosophila melanogaster were cultured at 25° C., 50-60% humidity, 12 hr:12 hr light:dark cycle, on brewer's yeast, dark corn syrup and agar food, following procedures modified from J. Bennett and D. L. van Dyke, Dros. […] Continuous, high-resolution measurement of fly behavior was achieved using an ultrasound activity monitoring system shown in FIG. 1A. Briefly, a 44 kHz standing wave was passed across an independent enclosure containing a single fly. An integrated circuit sampled a portion of each wave as a function of the transmit signal and compared it to the output from the receive signal for the same time-window. When the fly moved its mass within the field, it perturbed the standing wave and the resulting difference was counted as a movement. The output was sampled by a PC at 200 Hz, the data were summed in 2-sec bins and stored for later processing. This system detects very small movements in Drosophila's behavioral repertoire, including fine movements of the head, wings, and limbs. To monitor rest-activity patterns in large numbers of flies, an infrared Drosophila Activity Monitoring System was used (Trikinetics; described in M. Hamblen et al., J. Neurogen. 3:249 (1986)). To validate the system, flies were visually monitored for a total of 17.75 h (n=7). The number of times the fly crossed the infrared beam was counted in 5-minute bins. […] Drugs (caffeine or hydroxyzine) dissolved in food were continuously available to flies beginning in the final hour of the light period.

Drosophila [2] = assay: Responsiveness to arousing stimuli (arousal threshold) in flies; type: in vivo, Drosophila melanogaster; settings: flies given drug in food
Protocol: In order to determine whether periods of rest are associated with increased arousal thresholds, flies were subjected to vibratory stimuli of increasing intensity (0.05 g, 0.1 g, and 6 g). In these experiments, flies were placed in glass tubes (65 mm in length, 5 mm I.D.) maintained on a hard plastic platform above a Grass speaker. The output of the speaker was controlled via a Beckman signal generator and the resulting vibration of the platform was measured with an accelerometer. Each fly received a stimulus each hour (total of 8 stimuli) of constant intensity. The behavioral state at the time of stimulus delivery and the ensuing response were videotaped and scored off-line.

Row | Compound | motor activity (Drosophila [1]; flies given drug in food from final hour of light period) | amount of rest during the dark period (Drosophila [1]; flies given drug in food from final hour of light period, FIG. 3C, n=36/dose, p<0.0001) | responsiveness to arousing stimuli (Drosophila [2]) | rest during the first hour of the dark period (Drosophila [1]; flies given drug in food from final hour of light period, FIG. 3D, n=40/dose) | latency to first dark period rest (Drosophila [1]; flies given drug in food from final hour of light period, FIG. 3E, n=40/dose) | total amount of activity during the light period (Drosophila [1]; in vivo)
1 | Cn1c(=O)c2c(ncn2C)n(C)c1=O [caffeine] | increased | decreased in a dose-dependent fashion | – | – | – | –
2 | OCCOCCN1CCN(C(c2ccccc2)c2ccc(Cl)cc2)CC1 (stereo not drawn) [hydroxyzine] | – | – | preserved | increased in a dose-dependent manner | decreased | unchanged
